# Reference: ChEMBL document CHEMBL6134827, “The discovery of novel antimicrobial peptides against drug-resistant bacteria based on fragments fusion strategy” (Eur J Med Chem, 2025)
# The source made the active and inactive calls. The rule behind the calls is not given here. Non-standard residues stand in square brackets, D forms with d. Residues, ends and D or L forms follow the SMILES beside them. Dab = NCC[C@H](N)C(=O)O
# Experiments:
# Escherichia coli = assay: Antimicrobial activity against Escherichia coli ATCC 25922 assessed as inhibition of visible microbial growth incubated for 18 hrs by broth microdilution method; format: functional
# [1] = Cytotoxicity against human BEAS-2B cells assessed as survival rate at 64 microg/ml measured after 24 hrs by CCK-8 assay relative to control; format: toxicity, cell-based; details: at 64 µg/mL, read-out: Survival
# [2] = Cytotoxicity against HEK293T cells assessed as survival rate at 64 microg/ml measured after 24 hrs by CCK-8 assay relative to control; format: toxicity, cell-based, HEK-293T; details: human, at 64 µg/mL, read-out: Survival
# Staphylococcus aureus [3] = assay: Induction of morphological changes in multidrug resistant Staphylococcus aureus assessed as effect on cell integrity at 16 microg/ml incubated for 1 hrs by SEM analysis; format: functional, organism-based; details: dose 16.0 µg/ml
# Staphylococcus aureus [4] = assay: Drug resistance, ratio of MIC for Staphylococcus aureus ATCC 29213 after 16 passages exposure to MIC for Staphylococcus aureus ATCC 29213 after first exposure; format: functional
# Cell membrane [5] = assay: Disruption of cell membrane in multidrug resistant Pseudomonas aeruginosa assessed as increase in red fluorescence at 16 microg/mL incubated after 2 hrs by SYTO9/PI double staining based fluorescence confocal microscopic analysis; format: subcellular; details: dose 16.0 µg/ml
# Pseudomonas aeruginosa [6] = assay: Antimicrobial activity against multidrug resistant Pseudomonas aeruginosa assessed as inhibition of bacterial growth at >=125 microg/ml in presence of lipoteichoic acid by checkerboard microdilution assay; format: functional, organism-based; details: dose >= 125.0 µg/ml
# Pseudomonas aeruginosa [7] = assay: Antimicrobial activity against multidrug resistant Pseudomonas aeruginosa at 1.9 to 500 microg/ml in presence of lipopolysaccharide by checkerboard microdilution assay; format: functional, organism-based; details: dose 1.9-500 µg/ml
# [8] = Hepatotoxicity in female C57BL/6 mouse assessed as change in ALT level at 20 mg/kg, ip administered daily and measured for 5 days; format: toxicity, organism-based; details: in vivo, 120 h, time 5 day
# [9] = Toxicity in female C57BL/6 mouse assessed as histopathological change in heart at 20 mg/kg, ip administered daily and measured for 5 days by H and E staining based analysis; format: organism-based; details: in vivo, 120 h, time 5 day
# Pseudomonas aeruginosa [10] = assay: In vivo antibacterial activity against multidrug resistant Pseudomonas aeruginosa infected in acute peritonitis C57BL/6 mouse model assessed as decrease in IL-1beta level in serum at 5 to 20 mg/kg, ip measured after 12 hrs by ELISA; format: functional, organism-based; details: dose 5-20 mg/kg
# Pseudomonas aeruginosa [11] = assay: In vivo antibacterial activity against multidrug resistant Pseudomonas aeruginosa infected in acute peritonitis C57BL/6 mouse model assessed as decrease in TNF-alpha level in serum at 5 to 20 mg/kg, ip measured after 12 hrs by ELISA; format: functional, organism-based; details: dose 5-20 mg/kg
# Pseudomonas aeruginosa [12] = assay: In vivo antibacterial activity against multidrug resistant Pseudomonas aeruginosa infected in acute peritonitis C57BL/6 mouse model assessed as reduction in bacterial load in kidney at 10 to 20 mg/kg, ip measured after 12 hrs; format: functional, organism-based; details: dose 10-20 mg/kg
# Pseudomonas aeruginosa [13] = assay: Antibacterial activity against multidrug resistant Pseudomonas aeruginosa assessed as reduction in bacterial growth at 32 microg/mL by bactericidal kinetic assay; format: functional, organism-based; details: dose 32.0 µg/ml, time 0.5-4 hrs
# Cell membrane [14] = assay: Induction of cytoplasmic membrane depolarization in multidrug resistant Pseudomonas aeruginosa assessed as increase in fluorescence intensity at MIC concentration measured within 1 min by DISC3-5 dye based fluorescence analysis; format: subcellular
# Pseudomonas aeruginosa [15] = assay: Antimicrobial activity against multidrug resistant Pseudomonas aeruginosa at 1.9 to 500 microg/ml in presence of phosphatidylcholine by checkerboard microdilution assay; format: functional, organism-based; details: dose 1.9-500 µg/ml
smiles,measurement,setting,value
CC(C)C[C@H](NC(=O)CN)C(=O)N[C@@H](CCCNC(=N)N)C(=O)N[C@@H](CCN)C(=O)N[C@@H](Cc1c[nH]c2ccccc12)C(=O)N[C@@H](CC(C)C)C(=O)N[C@@H](CCCNC(=N)N)C(=O)N[C@@H](CCN)C(=O)N[C@@H](Cc1ccccc1)C(=O)N[C@@H](CCN)C(=O)N[C@@H](CCN)C(=O)N[C@@H](Cc1ccccc1)C(=O)N[C@@H](Cc1c[nH]c2ccccc12)C(=O)O (H-GLR[Dab]WLR[Dab]F[Dab][Dab]FW-OH),MIC,Escherichia coli,4.8 µM
same,"viability at 24 h, 64 µg/mL",[1],> 80%
same,"viability at 24 h, 64 µg/mL",[2],> 80%
same,Activity,Staphylococcus aureus [3],Active
same,Ratio,Staphylococcus aureus [4],<2
same,Activity,Cell membrane [5],Active
same,Activity,Pseudomonas aeruginosa [6],Active; Modest Inhibition Observed
same,Activity,Pseudomonas aeruginosa [7],inactive
same,Activity,[8],Non-toxic
same,Activity,[9],Non-toxic
same,Activity,Pseudomonas aeruginosa [10],Active
same,Activity,Pseudomonas aeruginosa [11],Active
same,Activity,Pseudomonas aeruginosa [12],Active
same,Activity,Pseudomonas aeruginosa [13],Time-dependent-effect
same,Activity,Cell membrane [14],Active; Maximal Depolarization Observed
same,Activity,Pseudomonas aeruginosa [15],Active
